pIC50: −log10 of the molar value.

The assay deals with prolyl 4-hydroxylase (collagen, EC 1.14.11.2). Nature of the assay: Inhibition of prolyl 4-hydroxylase by chromatographic determination of [14C]-succinic acid on ion-exchange minicolumna.

As for `CCOc1ccc(NC(=O)c2ccc(-c3ccc(C(=O)O)cn3)nc2)cc1` [5'-(4-Ethoxy-phenylcarbamoyl)-[2,2']bipyridinyl-5-carboxylic acid], the pIC50 is 6.49.

`O=C(NS(=O)(=O)c1ccccc1)c1ccc(-c2ccc(C(=O)NS(=O)(=O)c3ccccc3)cn2)nc1` [3-phenylsulfonamidocarbonyl-6-(5-phenylsulfonamidocarbonyl-2-pyridyl)pyridine] had a negative logarithm of the IC50 (pIC50) of 5.30.

A word on the pIC50: it is the negative decadic logarithm of the IC50, by convention in mol/L. A lower pIC50 goes with a large IC50.
